Results on eleven compounds are retold here after patent US8173673B2, “Biofilm-inhibiting effect and anti-infective activity of N,C-linked aryl isoquinolines and the use thereof” (Julius-Maximilians-Universitaet Wuerzburg, priority 2006, dated 2012).

Each structure is given as a SMILES string. Where two headings read alike, the source gives them in different places.

Common to all, as to assay type: cell-based
The test system of data set [1] is Leishmania major-promastigotes (MHOM/IL81/FE/BNI). Briefly: Alamar Blue activity test against Leishmania major promastigotes. The method, then: Leishmania major-promastigotes (MHOM/IL81/FE/BNI) were cultivated in blood agar-cultures at 26° C., 5% CO2, and 95% humidity. For the experiment, the promastigotes were washed twice with saline phosphate buffer (PBS) and subsequently suspended (10^8 cells/ml) in Click-RPMI-1640-medium without phenol red, spiked with 10% FCS, 2 mM L-glutamine, 1.0 mM HEPES-buffer, pH 7.2, 100 μg/ml penicillin, […] gentamycin, 7.5% NaHCO3 and 50 μM 2-mercaptoethanol (culture medium). For the determination of activity, 200 μl of the promastigote-suspension in microtiter plates were each incubated with the compounds in a geometric series of dilutions for 24 hours at 26° C., 5% CO2, and 95% humidity. Subsequently, 20 μl Alamar Blue (Trinova Biochem, Gieβen, Germany) were added to each of the microcultures, and the cultures were incubated further. Cultures that only contained medium and the compound, or only cellular suspension (without compound), served as controls. The optical density was measured after another 24 hours with an ELISA-reader at the wave lengths 550 nm and 630 nm. The IC50-values of the compounds were calculated through linear interpolation (J. Mikes, D. Steverding. Parasitol. Int. 2000, 48, 265-269).
Macrophages of the cell line J774.1 were washed and suspended in culture medium ([…]. For the test, 200 μl of the cell suspension and the compounds were pipetted in a geometric series of dilutions into cultures on microtiter plates. Following 24 hours of incubation at 37° C., 5% CO2, and 95% humidity, 20 μl Alamar Blue were added to each micro-culture, and the microtiter plate was incubated further. Micro-cultures with medium and the compound as well as micro-cultures that only contained cellular suspension (without compound), served as controls. The optical density was measured after 24, 48, and 72 hours with an ELISA-reader at the wavelengths 550 nm and 630 nm. The IC50-values of the compounds were calculated using linear interpolation. Amphotericin B served as a reference compound and positive control. […]

For data set [2], the system named is Trypanosoma brucei brucei strain TC-221. The data set is described as follows: Alamar Blue anti-trypanosome test, bloodstream forms. How it is done: Bloodstream-forms of the strain TC-221 of Trypanosoma brucei brucei were cultivated in enriched Baltz-culture medium in an atmosphere von 5% CO2 at 37° C. For activity determinations, a defined number of pathogens (10^4 trypanosomes per ml) were incubated in 96-well-plates with the compounds in different concentrations for 48 to 72 hours. The effect of the drugs was quantifiable using the ED50-values with linear interpolation. The trypanocidal activity of the test compounds was determined through measuring absorption on an MR 700 microplate reader (test wavelength 550 nm, reference wavelength 630 nm) by means of Alamar Blue®, an indicator of metabolic cellular functions. The addition of the dye took place 24 hours after starting the incubation. The color change of Alamar Blue® as used in this absorption measurements is based on reduction processes involving NADH or NADH-dependent enzymes. Incubation times and the concentrations of dye as required correlate with the metabolic activities of the trypanosomes. The MIC-value (minimum inhibitory concentration) was determined microscopically through counting of living cells in Neubauer-counting chambers. Suramine Na served both as positive control and reference.
The anti-trypanosomal activities of the compounds of the general structures 1-3 were studied based on a series of examples according to the above-described methods. The therapeutic index is the ratio of the cytoxicity (J774.1 macrophages) to the activities against Trypanosoma brucei brucei.

The test system of data set [3] is Plasmodium falciparum strain K1. The data set is described as follows: [3H]-hypoxanthine-inclusion-test, anti-plasmodium activity. The text has this:
For the determination of the anti-plasmodium activities, cultures of Plasmodium falciparum strain K1 (resistant against chloroquine and pyrimethamine) were used. A modification (R. G. Ridley, W. Hofheinz, if Matile, C. Jacquet, A. Dorn, R. Masciadri, S. Jolidon, W. F. Richter, A. Guenzi, M. A. Girometta, H. Urwyler, W. Huber, S. Thaitong, W. Peters, Antimicrob. Agents Chemother. 1996, 40, 1846-1854) of the [^3H]-hypoxanthine-inclusion-test (R. E. Desjardins, C. J. Canfield, D. Haynes, J. Chulay, Antimicrob. Agents Chemother. 1979, 16, 710-718) was used. Human red blood cells infected with P. falciparum (0.3% infection) at a hematocrit of 2.5% (volume fraction of the red blood cells) in RPMI 1640 medium with the serum replacement Albumax II (5 g/L) were incubated with serial dilutions of the drugs in microtiter plates for 48 hours at 37° C. under a CO2-enriched and O2-reduced atmosphere. Then, 0.5 μCi [^3H]-hypoxanthine were added to each well of the microtiter plate, and after a further 24 hours of incubation time the wells were harvested with a Betaplate Cell Harvester onto glass fiber filters, and lysed with distilled water. The incorporation of radio-labeled hypoxanthine (which correlates with the quantity of living parasites) was determined using a scintillation counter. The IC50 value was determined from sigmoidal inhibition curves. The tests were performed in duplicate, and repeated at least once. Parasite cultures without additive served as control (100% incorporation), cultures with a dilution series of chloroquine served as positive control.
(§1) The anti-plasmodia activities of the compounds of the general structures 1-3 were studied based on a series of examples according to the above-described methods. The therapeutic index is the ratio of the IC50 values for rat myoblasts (L-6-cells=cytotoxicity) to the IC50 values for Plasmodium falciparum.

Data set [4] deals with rat myoblasts (L-6-cells). Briefly: Cytotoxicity on rat myoblasts (L-6-cells). The note with it: result in words.
Description: as §1

The mark [5] stands for this setting: Trypanosoma brucei, T. brucei brucei TC-221, after 48 h, read-out: ED50 (μM) after 48 h.
[6] abbreviates: Trypanosoma brucei, T. brucei brucei TC-221, after 72 h, read-out: ED50 (μM) after 72 h.
[7] abbreviates: P. falciparum strain K1 (resistant against chloroquine and pyrimethamine), read-out: IC50.

In the case of `C[C@@H]1[C@H](O)[C@@H](C)/C=C/C=C/C=C/C=C/C=C/C=C/C=C/[C@H](O[C@@H]2O[C@H](C)[C@@H](O)[C@H](N)[C@@H]2O)C[C@@H]2O[C@](O)(C[C@@H](O)C[C@@H](O)[C@H](O)CC[C@@H](O)C[C@@H](O)CC(=O)O[C@H]1C)C[C@H](O)[C@H]2C(=O)O` [Amphotericin B, reference compound], in data set [1], it took 2510 nM to reach half-maximal inhibition (IC50).
On to `COc1cc(OC)c2c(C)[n+](-c3ccc(C)cc3)c(C)cc2c1` [B], for which the IC50 in data set [1] amounted to 2450 nM.
Consider `COc1cc2c(c(OC)c1)C(C)=[N+](c1cccc3ccccc13)[C@@H](C)C2` [Compound 2a, (3S)—N,1′-naphthyl-6,8-dimethoxy-1,3-dimethyl-3,4-dihydroisoquinolinium-trifluoro-acetate], for which the EC50 in data set [2] (setting [5]) amounted to 0.39 µM; in data set [2] (setting [6]) it was 0.356 µM.
`COc1cc(OC)c2c(C)[n+](-c3ccc(C(C)C)cc3)c(C)cc2c1` [D] displayed an IC50 in data set [1] of 850 nM.
`COc1cc(OC)c2c(C)[n+](-c3ccccc3OC)c(C)cc2c1` [E]: the EC50 is 0.383 µM in data set [2] (setting [5]) and 0.323 µM in data set [2] (setting [6]).
The matching figures for `COc1ccc(-[n+]2c(C)cc3cc(OC)cc(OC)c3c2C)c(OC)c1` [F]: 0.325 µM and 0.311 µM.
Take `COc1cc(OC)c2c(C)[n+](-c3ccc(Cl)cc3)c(C)cc2c1` [G]: the IC50 in data set [3] (setting [7]) stood at 56 nM.
Same read-out and setting: the result for `COc1cc(OC)c2c(C)[n+](-c3ccc(C(F)(F)F)cc3)c(C)cc2c1` [H] reads 282 nM.
With `COc1cc(OC)c2c(C)[n+](-c3ccc(NC(C)=O)cc3)c(C)cc2c1` [I], the cytotoxicity result in data set [4] was “without a detectable cytotoxicity”. For the same compound, in data set [3] (setting [7]), the IC50 was 211 nM.
In the case of `Cc1ccc(C(=O)Nc2ccc(S(=O)(=O)O)c3cc(S(=O)(=O)O)cc(S(=O)(=O)O)c23)cc1NC(=O)c1cccc(NC(=O)Nc2cccc(C(=O)Nc3cc(C(=O)Nc4ccc(S(=O)(=O)O)c5cc(S(=O)(=O)O)cc(S(=O)(=O)O)c45)ccc3C)c2)c1` [Suramin Na, reference compound], the EC50 in data set [2] (T. brucei brucei TC-221, after 48 h, read-out: ED50 (μM) after 48 h) is 0.31 µM; in data set [2] (T. brucei brucei TC-221, after 72 h, read-out: ED50 (μM) after 72 h), 0.32 µM.
As to `CCN(CC)CCCC(C)Nc1ccnc2cc(Cl)ccc12` (stereo not shown) [chloroquine, reference compound], the IC50 in data set [3] (K1) worked out at 119 nM.
